Measurements: BigSolDB 2.1

O=C(O)c1ccc(Cl)cc1Cl
solubility (mole fraction)
Conditions	in acetone	in acetonitrile	in ethanol	in ethyl acetate	in isobutanol	in isopropanol	in methanol	in n-butanol	in n-propanol	in toluene
273.15 K	0.0323	0.00318	0.0364	0.0232	0.0242	0.0367	0.0261	0.0374	0.0348	0.00132
278.15 K	0.0359	0.00361	0.04	0.0263	0.0281	0.0412	0.0294	0.0418	0.0385	0.00174
283.15 K	0.0394	0.00451	0.0442	0.0308	0.0326	0.0459	0.0331	0.0468	0.0422	0.0022
288.15 K	0.0439	0.00531	0.0485	0.0347	0.0375	0.0501	0.0369	0.0511	0.0465	0.00284
293.15 K	0.0482	0.00597	0.0537	0.0395	0.043	0.0565	0.0411	0.0563	0.052	0.0036
298.15 K	0.0531	0.00702	0.0591	0.0441	0.0483	0.0627	0.0458	0.0616	0.0575	0.00433
303.15 K	0.0585	0.00786	0.065	0.0484	0.0535	0.0699	0.0505	0.0676	0.0631	0.00552
308.15 K	0.0648	0.00929	0.0719	0.0537	0.0597	0.0769	0.0556	0.0746	0.0695	0.00671
313.15 K	0.0713	0.0103	0.0788	0.0595	0.066	0.0849	0.0616	0.0814	0.0763	0.00837
318.15 K	0.0784	0.0115	0.0849	0.0654	0.0719	0.0944	0.0673	0.0891	0.0823	0.00993
